The target in one experiment is MT1 receptor (Homo sapiens, UniProt P48039). Nature of the experiment: Melatonin MT1 receptor binding study. The note with it: 2-[125I]-iodomelatonin radioligand. Here is the method: (§1) The MT1 or MT2 receptor binding experiments are carried out using 2-[^125I]-iodomelatonin as reference radioligand. The radioactivity retained is determined using a liquid scintillation counter.
(§2) Competitive binding experiments are then carried out in triplicate using the various test compounds. A range of different concentrations is tested for each compound. The results enable the binding affinities of the compounds tested (Ki) to be determined.

The next experiment addresses T1, MT2 receptor (Homo sapiens, UniProt P49286).
T1 sequence (P49286 1-362): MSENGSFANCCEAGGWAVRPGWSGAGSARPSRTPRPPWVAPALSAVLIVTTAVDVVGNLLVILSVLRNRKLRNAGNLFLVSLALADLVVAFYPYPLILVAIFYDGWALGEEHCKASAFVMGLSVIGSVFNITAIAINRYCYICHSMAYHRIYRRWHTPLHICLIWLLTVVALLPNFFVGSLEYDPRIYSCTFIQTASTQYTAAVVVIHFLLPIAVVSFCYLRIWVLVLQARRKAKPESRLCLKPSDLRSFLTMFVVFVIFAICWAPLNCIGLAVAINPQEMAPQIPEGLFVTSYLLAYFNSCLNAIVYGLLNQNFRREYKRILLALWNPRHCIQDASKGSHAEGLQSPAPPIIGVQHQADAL
Put plainly: Melatonin MT2 receptor binding study. The note with it: 2-[125I]-iodomelatonin radioligand. Here is the method: as §1, §2

The next experiment concerns the target T2, human 5-HT2C receptor (Homo sapiens, UniProt P28335).
T2 construct: expressed in transfected cells
T2 sequence (P28335 33-458): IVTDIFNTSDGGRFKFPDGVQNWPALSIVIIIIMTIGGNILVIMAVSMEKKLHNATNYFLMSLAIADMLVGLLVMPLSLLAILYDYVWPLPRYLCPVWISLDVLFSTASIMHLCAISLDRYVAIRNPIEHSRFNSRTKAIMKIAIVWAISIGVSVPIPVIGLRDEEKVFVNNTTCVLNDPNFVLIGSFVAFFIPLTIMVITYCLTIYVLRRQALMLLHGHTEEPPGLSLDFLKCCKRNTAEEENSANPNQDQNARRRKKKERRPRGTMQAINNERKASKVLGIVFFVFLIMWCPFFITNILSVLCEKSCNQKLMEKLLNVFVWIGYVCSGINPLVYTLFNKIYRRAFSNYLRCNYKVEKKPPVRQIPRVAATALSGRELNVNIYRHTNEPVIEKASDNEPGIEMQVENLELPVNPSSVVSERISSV
Put plainly: Serotoninergic 5-HT2C receptor binding study. The note with it: CHO cell membranes, [3H]-mesulergine (1 nM). Here is the method:
The affinity of the compounds for the human 5-HT2C receptor is evaluated on membrane preparations from CHO cells stably expressing that receptor.
Incubation is carried out in 50 mM TRIS buffer, pH 7.4, containing 10 mM MgCl2 and
0.1% BSA, in the presence of [^3H]-mesulergine (1 nM) and 25 fmol/ml of receptor. Non-specific binding is determined in the presence of 10 μM mianserin.
The reaction is stopped by the addition of 50 mM TRIS buffer, pH 7.4, followed by a filtration step and 3 successive rinses: the radioactivity bound to the membranes remaining on the filters (GF/B pretreated with 0.1% PEI) is determined by liquid scintillation counting.

SMILES strings stand for the structures.

MT1 receptor, sequence (P48039 whole entry): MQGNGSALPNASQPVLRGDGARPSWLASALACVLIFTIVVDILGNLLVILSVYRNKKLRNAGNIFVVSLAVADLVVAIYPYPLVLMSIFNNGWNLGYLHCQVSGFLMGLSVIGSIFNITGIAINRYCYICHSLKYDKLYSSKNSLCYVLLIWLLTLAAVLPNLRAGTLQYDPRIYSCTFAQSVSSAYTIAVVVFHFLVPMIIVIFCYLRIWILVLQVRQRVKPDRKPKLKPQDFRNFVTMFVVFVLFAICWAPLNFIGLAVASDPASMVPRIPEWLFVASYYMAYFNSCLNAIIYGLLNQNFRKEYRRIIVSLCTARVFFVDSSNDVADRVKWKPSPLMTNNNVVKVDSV

As to `COc1ccc2cccc(C(CF)CNC(C)=O)c2c1` (stereo not drawn) [Example 5, N-[3-Fluoro-2-(7-methoxy-1-naphthyl)propyl]acetamide], the Ki was found to be 0.1 nM on MT1 receptor, 0.2 nM on MT2 receptor and 6000 nM at human 5-HT2C receptor.

For orientation: Ki means the dissociation constant of the complex between target and ligand, obtained from inhibition or displacement. A higher Ki goes with weaker binding.

For the origin of these results see patent US20100137446A1, “NAPHTHALENE COMPOUNDS, A PROCESS FOR THEIR PREPARATION AND PHARMACEUTICAL COMPOSITIONS CONTAINING THEM” (priority 2007, published 2010).
